The values that follow come from publication PMC12362587, “Untargeted Diversity-Oriented Synthesis for the Discovery of New Antitumor Agents: An Integrated Approach of Inverse Virtual Screening, Bioinformatics, and Omics for Target Deconvolution” (Journal of Medicinal Chemistry, 2025).

One series concerns SHSY5Y. Kind of series: MTT cell viability assay. It is filed as cell-based. The settings on record: Homo sapiens, SH-SY5Y, 24 h, compounds 0.01–40 μM, read-out: In Vitro Cytotoxicity, EC50 ± SD, SHSY5Y. The text has this: (§1) Initially, we phenotypically screened the synthesized compounds over a panel of tumor cell lines composed of HEPG2, A375, SHSY5Y, MCF7, and A549 derived from liver tumor, melanoma, neuroblastoma, breast cancer, and lung adenocarcinoma, respectively. We also considered the HaCaT cell line, coming from keratinocytes, as a healthy control line. As reference, cytotoxic chemotherapeutic agent 5-fluorouracil (5-FU) has been used. The results obtained performing the MTT (3-(4,5-dimethylthiazolyl-2)-2,5-diphenyltetrazolium bromide) assay are summarized in Table .
(§2) The human neuroblastoma SHSY5Y, melanoma A375, human breast cancer MCF7, nonsmall lung cancer A549, and human epidermal keratinocyte HaCaT cell lines were obtained from ATCC and were grown in Dulbecco’s Modified Eagle Medium (DMEM) supplemented with 10% (v/v) FBS, 2 mM L-glutamine, 100 U/mL penicillin, and 0.1 mg/mL streptomycin.
(§3) Cell viability was established by measuring mitochondrial metabolic activity with MTT. In brief, HEPG2 (1 × 10^4 cells/well), A375 (2 × 10^3 cells/well), HaCaT (3 × 10^3 cells/well), A549 (3 × 10^3 cells/well), SHSY5Y (2 × 10^4 cells/well), and MCF 7 (5 × 10^3 cells/well) were plated into 96-well plates for 24 h, then the compounds (0.01–40 μM) were added. After 24h, cells were replaced with a fresh medium containing 0.5 mg/mL MTT. Cells were incubated 1–3 h at 37 °C, then the medium was discarded, and formazan blue crystals in the cells were dissolved in 100 μL per well of a solution containing isopropanol/HCl 0.1 M. The absorbance was measured at 570 nm using a microplate reader (Multiskan Go, Thermo Scientific, Waltham, MA, USA). Cell viability was expressed as a percentage relative to the untreated cells cultured in medium with 0.1% DMSO and set to 100%, whereas 10% DMSO was used as positive control and set to 0% of viability. The EC50 values were calculated using GraphPad Prism 8.0 software by nonlinear regression of dose–response inhibition.
Background: Tetrazolium assays rely on reduction of a dye to a coloured formazan, in cell work by metabolically active cells.

Another series concerns MCF7. The experiment in a line: MTT cell viability assay. In kind it is cell-based. To be noted: Homo sapiens, 24 h, compounds 0.01–40 μM, read-out: In Vitro Cytotoxicity, EC50 ± SD, MCF7.
From the text: as §1, §2, §3

A further series concerns A549. Kind of series: MTT cell viability assay. It is filed as cell-based. To be noted: Homo sapiens, 24 h, compounds 0.01–40 μM, read-out: In Vitro Cytotoxicity, EC50 ± SD, A549.
From the text: as §1, §2, §3

A further series relates to A375. The experiment in a line: MTT cell viability assay. To be noted: Homo sapiens, A-375, 24 h, compounds 0.01–40 μM, read-out: In Vitro Cytotoxicity, EC50 ± SD, A375. In kind it is cell-based.
From the text: as §1, §2, §3

Another series concerns HEPG2. Kind of series: MTT cell viability assay. In kind it is cell-based. The settings on record: Homo sapiens, 24 h, compounds 0.01–40 μM, read-out: In Vitro Cytotoxicity, EC50 ± SD, HEPG2.
From the text: as §1
The human hepatoma HEPG2 cell line was obtained from American Type Culture Collection (ATCC, Rockville, MD, USA). Cells were grown in Eagle’s Minimum Essential Medium (EMEM) supplemented with 10% (v/v) fetal bovine serum (FBS), 2 mM L-glutamine, 1% (v/v) nonessential amino acids, 100 U/mL penicillin, and 0.1 mg/mL streptomycin.
as §3

Another series concerns HaCaT. Kind of series: MTT cell viability assay. In kind it is cell-based, human. To be noted: in words.
From the text: as §1, §2, §3

The nature of a further series: MTT cell viability assay. It is filed as cell-based, human. The settings on record: human, HaCaT keratinocyte cells (healthy control line), 24 h, compounds 0.01–40 μM, healthy control line, read-out: In Vitro Cytotoxicity, EC50 ± SD, HaCaT.
From the text: as §1, §2, §3

As usually defined, the EC50 is the concentration that produces a half-maximal response.

Consider `CC(C)C[C@@H](C(=O)NCc1ccccc1)N1Cc2ccccc2OC1=O` [Compound 7, (S)-N-Benzyl-4-methyl-2-(2-oxo-2H-benzo[e][1,3]oxazin-3(4H)-yl)pentanamide], for which the EC50 in the series on SHSY5Y is 11.5 ± 2.05 µM; with MCF7, 20.2 ± 3.57 µM; with A549, greater than 40 µM; in the series on A375 it was 13.7 ± 1.4 µM; with HEPG2 it was 35.6 ± 3.22 µM. Moreover, the “cytotoxicity effect over the HaCaT cell lines” value in the series with HaCaT is on record as “exhibited cytotoxicity effect”. Moreover, the EC50 at 24 h in the series “MTT cell viability assay” came to 38.4 ± 4.54 µM.
Regarding `CC(C)(C)CNC(=O)[C@H](Cc1ccccc1)N1Cc2ccccc2OC1=O` [Compound 8, (S)-N-Neopentyl-2-(2-oxo-2H-benzo[e][1,3]oxazin-3(4H)-yl)-3-phenylpropanamide], the EC50 in the series on SHSY5Y was greater than 40 µM; in the series with MCF7, 13.8 ± 2.28 µM; in the series with A549, 15 ± 2.84 µM; in the series on A375, 17.5 ± 3.22 µM; in the series on HEPG2 it was 21.4 ± 4.94 µM. In addition, the “cytotoxicity effect over the HaCaT cell lines” value with HaCaT is “exhibited cytotoxicity effect”. The EC50 at 24 h in the series “MTT cell viability assay” was 34.8 ± 3.79 µM.
